Results as given in ChEMBL document CHEMBL1649254, “A Ser29Leu substitution in the cytosine deaminase Fca1p is responsible for clade-specific flucytosine resistance in Candida dubliniensis” (2009).
≈ marks a conversion by molar mass, not a printed value.

Columns and labels:
Format in all cases: functional
[1] = tested on: Candida dubliniensis; test: […] activity against 5FC- […] Candida dubliniensis isolate SA109T1 harboring plasmid pNIM1 carrying CdFCA1 gene by broth microdilution method in presence of 30 ug/ml DOX
[2] = tested on: Candida dubliniensis; test: […] activity against 5FC- resistant Candida dubliniensis isolate harboring plasmid p7276T3 carrying CdFCA1 gene by broth microdilution method in presence of 30 ug/ml DOX
[3] = tested on: Candida dubliniensis; test: […] activity against 5FC- resistant Candida dubliniensis isolate harboring plasmid p7276T2 carrying CdFCA1 gene by broth microdilution method in presence of 30 ug/ml DOX
[4] = tested on: Candida dubliniensis; test: […] activity against 5FC- resistant Candida dubliniensis isolate harboring plasmid p7276T1 carrying CdFCA1 gene by broth microdilution method in presence of 30 ug/ml DOX
[5] = tested on: Candida dubliniensis; test: […] activity against Candida dubliniensis harboring plasmid p7276 by broth microdilution method in presence of 30 ug/ml DOX
[6] = tested on: Candida dubliniensis; test: […] activity against Candida dubliniensis isolate SA109 by broth microdilution method in presence of 30 ug/ml DOX
[7] = tested on: Candida dubliniensis; test: […] activity against Candida dubliniensis isolate SA113 by broth microdilution method in presence of 30 ug/ml DOX
[8] = tested on: Candida dubliniensis; test: […] activity against Candida dubliniensis isolate harboring plasmid p7276 carrying GFP1T1 gene by broth microdilution method in presence of 25 ug/ml DOX
[9] = tested on: Candida dubliniensis; test: […] activity against 5FC- […] Candida dubliniensis isolate SA113T1 harboring plasmid pNIM1 carrying CdFCA1 gene by broth microdilution method in presence of 25 ug/ml DOX
[10] = tested on: Candida dubliniensis; test: […] activity against 5FC- […] Candida dubliniensis isolate SA109T2 harboring plasmid pNIM1 carrying CdFCA1 gene by broth microdilution method in presence of 25 ug/ml DOX
[11] = tested on: Candida dubliniensis; test: […] activity against 5FC- […] Candida dubliniensis isolate SA109T1 harboring plasmid pNIM1 carrying CdFCA1 gene by broth microdilution method in presence of 25 ug/ml DOX
[12] = tested on: Candida dubliniensis; test: […] activity against 5FC- resistant Candida dubliniensis isolate harboring plasmid p7276T3 carrying CdFCA1 gene by broth microdilution method in presence of 25 ug/ml DOX
[13] = tested on: Candida dubliniensis; test: […] activity against 5FC- resistant Candida dubliniensis isolate harboring plasmid p7276T2 carrying CdFCA1 gene by broth microdilution method in presence of 25 ug/ml DOX
[14] = tested on: Candida dubliniensis; test: […] activity against 5FC- resistant Candida dubliniensis isolate harboring plasmid p7276T1 carrying CdFCA1 gene by broth microdilution method in presence of 25 ug/ml DOX
[15] = tested on: Candida dubliniensis; test: […] activity against Candida dubliniensis harboring plasmid p7276 by broth microdilution method in presence of 25 ug/ml DOX
[16] = tested on: Candida dubliniensis; test: […] activity against Candida dubliniensis isolate SA109 by broth microdilution method in presence of 25 ug/ml DOX
[17] = tested on: Candida dubliniensis; test: […] activity against Candida dubliniensis isolate SA113 by broth microdilution method in presence of 25 ug/ml DOX
[18] = tested on: Candida dubliniensis; test: […] activity against Candida dubliniensis isolate harboring plasmid p7276 carrying GFP1T1 gene by broth microdilution method
[19] = tested on: Candida dubliniensis; test: […] activity against 5FC- susceptible Candida dubliniensis isolate SA113T1 harboring plasmid pNIM1 carrying CdFCA1 gene by broth microdilution method
[20] = tested on: Candida dubliniensis; test: […] activity against 5FC- […] Candida dubliniensis isolate SA109T2 harboring plasmid pNIM1 carrying CdFCA1 gene by broth microdilution method
[21] = tested on: Candida dubliniensis; test: […] activity against 5FC- […] Candida dubliniensis isolate SA109T1 harboring plasmid pNIM1 carrying CdFCA1 gene by broth microdilution method
[22] = tested on: Candida dubliniensis; test: […] activity against 5FC- resistant Candida dubliniensis isolate harboring plasmid p7276T3 carrying CdFCA1 gene by broth microdilution method
[23] = tested on: Candida dubliniensis; test: […] activity against 5FC- resistant Candida dubliniensis isolate harboring plasmid p7276T2 carrying CdFCA1 gene by broth microdilution method
[24] = tested on: Candida dubliniensis; test: […] activity against 5FC- resistant Candida dubliniensis isolate harboring plasmid p7276T1 carrying CdFCA1 gene by broth microdilution method
[25] = tested on: Candida dubliniensis; test: […] activity against Candida dubliniensis harboring plasmid p7276 by broth microdilution method
[26] = tested on: Candida dubliniensis; test: […] activity against Candida dubliniensis isolate SA109 by broth microdilution method
[27] = tested on: Candida dubliniensis; test: […] activity against Candida dubliniensis isolate SA113 by broth microdilution method
[28] = tested on: Candida dubliniensis; test: […] activity against Candida dubliniensis isolate SA121 of Cd25 fingerprint group 3 and ITS genotype 4 by CLSI M27-A2 method
[29] = tested on: Candida dubliniensis; test: […] activity against Candida dubliniensis isolate SA118 of Cd25 fingerprint group 3 and ITS genotype 3 by CLSI M27-A2 method
[30] = tested on: Candida dubliniensis; test: […] activity against Candida dubliniensis isolate SA113 of Cd25 fingerprint group 3 and ITS genotype 4 by CLSI M27-A2 method
[31] = tested on: Candida dubliniensis; test: […] activity against Candida dubliniensis isolate SA109 of Cd25 fingerprint group 3 and ITS genotype 3 by CLSI M27-A2 method
[32] = tested on: Candida dubliniensis; test: […] activity against Candida dubliniensis isolate SA108 of Cd25 fingerprint group 3 and ITS genotype 3 by CLSI M27-A2 method
[33] = tested on: Candida dubliniensis; test: […] activity against Candida dubliniensis isolate SA103 of Cd25 fingerprint group 3 and ITS genotype 3 by CLSI M27-A2 method
[34] = tested on: Candida dubliniensis; test: […] activity against Candida dubliniensis isolate SA107 of Cd25 fingerprint group 3 and ITS genotype 3 by CLSI M27-A2 method
[35] = tested on: Candida dubliniensis; test: […] activity against Candida dubliniensis isolate SA100 of Cd25 fingerprint group 3 and ITS genotype 3 by CLSI M27-A2 method
[36] = tested on: Candida dubliniensis; test: […] activity against Candida dubliniensis isolate Eg207 of Cd25 fingerprint group 3 and ITS genotype 4 by CLSI M27-A2 method
[37] = tested on: Candida dubliniensis; test: […] activity against Candida dubliniensis isolate Eg202 of Cd25 fingerprint group 3 and ITS genotype 4 by CLSI M27-A2 method
[38] = tested on: Candida dubliniensis; test: […] activity against Candida dubliniensis isolate Eg201 of Cd25 fingerprint group 3 and ITS genotype 4 by CLSI M27-A2 method
[39] = tested on: Candida dubliniensis; test: […] activity against Candida dubliniensis isolate Eg200 of Cd25 fingerprint group 3 and ITS genotype 4 by CLSI M27-A2 method
[40] = tested on: Candida dubliniensis; test: […] activity against Candida dubliniensis isolate p7718 of Cd25 fingerprint group 3 and ITS genotype 4 by CLSI M27-A2 method
[41] = tested on: Candida dubliniensis; test: […] activity against Candida dubliniensis isolate p6785 of Cd25 fingerprint group 2 and ITS genotype 3 by CLSI M27-A2 method
[42] = tested on: Candida dubliniensis; test: […] activity against Candida dubliniensis isolate p7276 of Cd25 fingerprint group 2 and ITS genotype 3 by CLSI M27-A2 method
[43] = tested on: Candida dubliniensis; test: […] activity against Candida dubliniensis isolate Eg206 of Cd25 fingerprint group 1 and ITS genotype 1 by CLSI M27-A2 method
[44] = tested on: Candida dubliniensis; test: […] activity against Candida dubliniensis isolate Eg203 of Cd25 fingerprint group 1 and ITS genotype 1 by CLSI M27-A2 method
[45] = tested on: Candida dubliniensis; test: […] activity against Candida dubliniensis isolate SA115 of Cd25 fingerprint group 1 and ITS genotype 1 by CLSI M27-A2 method
[46] = tested on: Candida dubliniensis; test: […] activity against Candida dubliniensis isolate SA105 of Cd25 fingerprint group 1 and ITS genotype 1 by CLSI M27-A2 method
[47] = tested on: Candida dubliniensis; test: […] activity against Candida dubliniensis isolate SA101 of Cd25 fingerprint group 1 and ITS genotype 1 by CLSI M27-A2 method
[48] = tested on: Candida dubliniensis; test: […] activity against Candida dubliniensis isolate CD36b of Cd25 fingerprint group 1 and ITS genotype 1 by CLSI M27-A2 method
[49] = tested on: Candida albicans; test: […] activity against Candida albicans harboring Gly28Asp substitution in the cytosine deaminase gene by EUCAST method
[50] = tested on: Candida albicans; test: […] activity against Candida albicans harboring Ser29Leu substitution in the cytosine deaminase gene by EUCAST method
[51] = tested on: Candida dubliniensis; test: […] activity against 5FC-resistant Candida dubliniensis by NCCLS M27-A2 broth microdilution method
[52] = tested on: Candida dubliniensis; test: […] activity against 5FC-susceptible Candida dubliniensis by NCCLS M27-A2 broth microdilution method
[53] = tested on: Candida albicans; test: […] activity against Candida albicans by EUCAST method
[54] = tested on: Candida dubliniensis; test: […] activity against 5FC- […] Candida dubliniensis isolate SA109T2 harboring plasmid pNIM1 carrying CdFCA1 gene by broth microdilution method in presence of 30 ug/ml DOX
[55] = tested on: Candida dubliniensis; test: […] activity against 5FC- susceptible Candida dubliniensis isolate SA113T1 harboring plasmid pNIM1 carrying CdFCA1 gene by broth microdilution method in presence of 30 ug/ml DOX
[56] = tested on: Candida dubliniensis; test: […] activity against Candida dubliniensis isolate harboring plasmid p7276 carrying GFP1T1 gene by broth microdilution method in presence of 30 ug/ml DOX

Structure (SMILES): Nc1nc(=O)[nH]cc1F [FLUCYTOSINE]
- MIC [1]: ≤ 0.25 µg/mL
- MIC [2]: ≤ 0.25 µg/mL
- MIC [3]: ≤ 0.25 µg/mL
- MIC [4]: ≤ 0.25 µg/mL
- MIC [5]: ≤ 0.25 µg/mL
- MIC [6]: ≥ 128 µg/mL
- MIC [7]: ≥ 128 µg/mL
- MIC [8]: ≤ 0.25 µg/mL
- MIC [9]: ≤ 0.25 µg/mL
- MIC [10]: ≤ 0.25 µg/mL
- MIC [11]: ≤ 0.25 µg/mL
- MIC [12]: ≤ 0.25 µg/mL
- MIC [13]: ≤ 0.25 µg/mL
- MIC [14]: ≤ 0.25 µg/mL
- MIC [15]: ≤ 0.25 µg/mL
- MIC [16]: ≥ 128 µg/mL
- MIC [17]: ≥ 128 µg/mL
- MIC [18]: ≤ 0.25 µg/mL
- MIC [19]: ≥ 128 µg/mL
- MIC [20]: ≥ 128 µg/mL
- MIC [21]: ≥ 128 µg/mL
- MIC [22]: ≤ 0.25 µg/mL
- MIC [23]: ≤ 0.25 µg/mL
- MIC [24]: ≤ 0.25 µg/mL
- MIC [25]: ≤ 0.25 µg/mL
- MIC [26]: ≥ 128 µg/mL
- MIC [27]: ≥ 128 µg/mL
- MIC [28]: ≥ 128 µg/mL
- MIC [29]: ≥ 128 µg/mL
- MIC [30]: ≥ 128 µg/mL
- MIC [31]: ≥ 128 µg/mL
- MIC [32]: ≥ 128 µg/mL
- MIC [33]: ≥ 128 µg/mL
- MIC [34]: ≥ 128 µg/mL
- MIC [35]: ≥ 128 µg/mL
- MIC [36]: ≥ 128 µg/mL
- MIC [37]: ≥ 128 µg/mL
- MIC [38]: ≥ 128 µg/mL
- MIC [39]: ≥ 128 µg/mL
- MIC [40]: ≤ 0.25 µg/mL
- MIC [41]: ≤ 0.25 µg/mL
- MIC [42]: ≤ 0.25 µg/mL
- MIC [43]: ≤ 0.25 µg/mL
- MIC [44]: ≤ 0.25 µg/mL
- MIC [45]: ≤ 0.25 µg/mL
- MIC [46]: ≤ 0.25 µg/mL
- MIC [47]: ≤ 0.25 µg/mL
- MIC [48]: ≤ 0.25 µg/mL
- MIC [49]: > 64 µg/mL
- MIC [50]: 4 µg/mL (≈ 31 µM)
- MIC [51]: ≥ 128 µg/mL
- MIC [52]: ≤ 0.125 µg/mL
- MIC [53]: ≥ 0.06 µg/mL
- MIC [54]: ≤ 0.25 µg/mL
- MIC [55]: ≤ 0.25 µg/mL
- MIC [56]: ≤ 0.25 µg/mL

Structure (SMILES): O=c1[nH]cc(F)c(=O)[nH]1 [FLUOROURACIL]
- MIC [28]: 32 µg/mL (≈ 246 µM)
- MIC [29]: 32 µg/mL (≈ 246 µM)
- MIC [30]: 32 µg/mL (≈ 246 µM)
- MIC [31]: 8 µg/mL (≈ 61.5 µM)
- MIC [32]: 32 µg/mL (≈ 246 µM)
- MIC [33]: 32 µg/mL (≈ 246 µM)
- MIC [34]: 32 µg/mL (≈ 246 µM)
- MIC [35]: 32 µg/mL (≈ 246 µM)
- MIC [36]: 32 µg/mL (≈ 246 µM)
- MIC [37]: 32 µg/mL (≈ 246 µM)
- MIC [38]: 32 µg/mL (≈ 246 µM)
- MIC [39]: 8 µg/mL (≈ 61.5 µM)
- MIC [40]: 16 µg/mL (≈ 123 µM)
- MIC [41]: 16 µg/mL (≈ 123 µM)
- MIC [42]: 8 µg/mL (≈ 61.5 µM)
- MIC [43]: 32 µg/mL (≈ 246 µM)
- MIC [44]: 16 µg/mL (≈ 123 µM)
- MIC [45]: 32 µg/mL (≈ 246 µM)
- MIC [46]: 32 µg/mL (≈ 246 µM)
- MIC [47]: 16 µg/mL (≈ 123 µM)
- MIC [48]: 32 µg/mL (≈ 246 µM)
